Measured values from ChEMBL document CHEMBL3822430, “Discovery of pyrido[3,4-g]quinazoline derivatives as CMGC family protein kinase inhibitors: Design, synthesis, inhibitory potency and X-ray co-crystal structure” (Eur J Med Chem, 2016).

Legend:
[1] = biological target: Cyclin-dependent kinase 5/CDK5 activator 1 (Homo sapiens, UniProt Q00535); test: Inhibition of GST-tagged human recombinant CDK5/p25 expressed in Escherichia coli using histone H1 as substrate incubated for 30 mins in presence of [gamma-33 ATP] by liquid scintillation counting analysis
Chain of Cyclin-dependent kinase 5/CDK5 activator 1 (Q00535 whole entry): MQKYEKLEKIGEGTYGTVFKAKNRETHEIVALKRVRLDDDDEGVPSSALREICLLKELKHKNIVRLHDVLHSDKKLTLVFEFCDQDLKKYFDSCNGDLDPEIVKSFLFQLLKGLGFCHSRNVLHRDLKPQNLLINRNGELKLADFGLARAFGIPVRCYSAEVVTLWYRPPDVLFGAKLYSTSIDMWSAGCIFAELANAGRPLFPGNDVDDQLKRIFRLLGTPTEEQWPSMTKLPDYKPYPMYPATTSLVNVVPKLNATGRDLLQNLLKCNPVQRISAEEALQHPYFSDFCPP
Chain of Cyclin-dependent kinase 5/CDK5 activator 1 (Q15078 whole entry, further chain): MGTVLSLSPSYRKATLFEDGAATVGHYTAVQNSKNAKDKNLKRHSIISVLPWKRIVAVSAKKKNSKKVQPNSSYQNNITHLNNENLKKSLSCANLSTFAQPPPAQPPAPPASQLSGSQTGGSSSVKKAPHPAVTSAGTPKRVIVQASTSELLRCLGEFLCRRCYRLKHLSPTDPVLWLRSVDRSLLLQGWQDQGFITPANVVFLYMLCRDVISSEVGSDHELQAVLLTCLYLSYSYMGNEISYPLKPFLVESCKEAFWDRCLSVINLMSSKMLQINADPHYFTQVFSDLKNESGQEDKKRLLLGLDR

[2] = biological target: Dual specificity tyrosine-phosphorylation-regulated kinase 1A (Rattus norvegicus, UniProt Q63470); test: Inhibition of GST-tagged rat recombinant DYRK1A expressed in Escherichia coli using myelin basic protein as substrate incubated for 30 mins in presence of [gamma-33 ATP] by liquid scintillation counting analysis
[3] = biological target: Glycogen synthase kinase-3 (Sus scrofa, UniProt B2LUN4+I6LNT8); test: Inhibition of porcine brain GSK3alpha/beta using GS-1 as substrate incubated for 10 mins in presence of [gamma-32 ATP] by liquid scintillation counting analysis
[4] = Inhibition of porcine brain CK1 delta/epsilon using CK-S as substrate incubated for 30 mins in presence of [gamma-33 ATP] by liquid scintillation counting analysis; set-up: species or system Sus scrofa
[5] = biological target: Dual specificity protein kinase CLK1 (Homo sapiens, UniProt P49759); test: Inhibition of GST-tagged human recombinant CLK1 expressed in Escherichia coli using RS peptide as substrate
Chain of Dual specificity protein kinase CLK1 (P49759 whole entry): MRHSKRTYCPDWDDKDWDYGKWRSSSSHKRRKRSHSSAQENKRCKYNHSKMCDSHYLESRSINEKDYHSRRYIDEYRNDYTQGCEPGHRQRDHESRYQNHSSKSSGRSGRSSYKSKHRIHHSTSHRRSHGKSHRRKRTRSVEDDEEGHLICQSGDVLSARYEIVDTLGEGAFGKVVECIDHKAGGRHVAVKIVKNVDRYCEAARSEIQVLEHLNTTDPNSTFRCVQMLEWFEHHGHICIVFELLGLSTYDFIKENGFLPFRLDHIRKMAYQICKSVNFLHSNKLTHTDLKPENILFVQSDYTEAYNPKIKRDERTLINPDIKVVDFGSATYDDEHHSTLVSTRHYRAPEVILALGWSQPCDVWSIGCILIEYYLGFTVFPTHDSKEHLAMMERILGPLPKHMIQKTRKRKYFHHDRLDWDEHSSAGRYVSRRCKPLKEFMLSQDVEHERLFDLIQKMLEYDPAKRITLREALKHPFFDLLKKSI

In the case of `Nc1ncc2cc3cnccc3c([N+](=O)[O-])c2n1`, the IC50 [1] is reported as > 10 µM, the IC50 [2] is reported as 620 nM and the IC50 [3] is reported as 2.2 µM. For the same molecule, the IC50 [4] was 780 nM and the IC50 [5] was 69 nM.
In the case of `Nc1ncc2cc3cnccc3c(N)c2n1`, the IC50 [1] is reported as 4.8 µM, the IC50 [2] is reported as 28 nM and the IC50 [3] is reported as 9.1 µM. For the same molecule, the IC50 [4] was 5800 nM and the IC50 [5] was 41 nM.
In the case of `Nc1ncc2cc3cnccc3cc2n1`, the IC50 [1] is reported as > 10 µM, the IC50 [2] is reported as 180 nM and the IC50 [3] is reported as > 10 µM. It also gave an IC50 [4] of 800 nM and an IC50 [5] of 190 nM.
